Experimental data: publication PMC10781878, “AMWEst, a new thermostable and detergent-tolerant esterase retrieved from the Albian aquifer” (Applied Microbiology and Biotechnology, 2024)

System: T1, AMWEst
T1 construct: primer keeps native start codon (predicted signal peptide 1-22, LHA-EQ); ultrafiltered extracellular medium, not purified; about 50 kDa on SDS-PAGE, probably N-glycosylated
Assay: spectrophotometric p-nitrophenol release at […] nm, Lineweaver-Burk plot
Type: biochemical, uncultured bacterium
Conditions: 50 mM Tris/HCl pH 8.5, 40 mM CaCl2, 60 °C, 20 min; substrate 0.1-10 mM; concentrated extracellular medium of recombinant yeast

`CCCCCCCCCCCC(=O)Oc1ccc([N+](=O)[O-])cc1` [pNP12, p-nitrophenyl laurate] gave a Km of 1020 µM.
